{
  "source": "paper PMC6572427",
  "about": "“Peptosome Coadministration Improves Nanoparticle Delivery to Tumors through NRP1-Mediated Co-Endocytosis” (Biomolecules, 2019)",
  "origin": "cited, not measured here",
  "conditions": "in vivo",
  "from_the_text": "Therefore, its fluorescence signal can be used to reflect the integrity of peptosomes and estimate the in vivo plasma stability. […] Blood was then collected at different time points after the injection as described in the methods, and the fluorescence signals were detected using an IVIS Spectrum in vivo ...",
  "data": [
    {"sequence": "CRGDKGPDC [iRGD]", "values": [
      {"measurement": "plasma half-life", "value": "eight"}
    ]}
  ]
}
